According to US11034650B2, “Compounds useful for treating a Mannheimia haemolytica or Histophilus somni infection” (Intervet Inc., priority 2016, dated 2021):
Converted amounts (≈) assume the structure as drawn.

Tests used:
Format in all cases: cell-based
[1] = tested on: Mannheimia haemolytica MH 10720 (154, BRD field isolate); assay: MIC, broth-microdilution (CLSI VET01-A4), strain MH 10720; details: Mannheimia haemolytica strain MH 10720, broth-microdilution; unit assumed
Summary of the method: (§1)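 MIC recorded as the lowest drug level giving no growth visible to the naked eye, from two-fold serial dilutions. Interpretation followed VET01-S3.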

[2] = tested on: Pasteurella multocida PM 12080 (IV102277-0093, BRD field isolate); assay: MIC, broth-microdilution (CLSI VET01-A4), strain PM 12080; details: Pasteurella multocida strain PM 12080, broth-microdilution; unit assumed
Summary of the method: as §1

[3] = tested on: Mannheimia haemolytica MH 13065 (XB0446-6003.9, BRD field isolate); assay: MIC, broth-microdilution (CLSI VET01-A4), strain MH 13065; details: Mannheimia haemolytica strain MH 13065, broth-microdilution; unit assumed
Summary of the method: as §1

[4] = tested on: Pasteurella multocida PM 10775 (080130003051, BRD field isolate); assay: MIC, broth-microdilution (CLSI VET01-A4), strain PM 10775; details: Pasteurella multocida strain PM 10775, broth-microdilution; unit assumed
Summary of the method: as §1

[5] = tested on: Pasteurella multocida PM 6391 (ATCC 43137, reference strain); assay: MIC, broth-microdilution (CLSI VET01-A4), strain PM 6391; details: Pasteurella multocida strain PM 6391, broth-microdilution; unit assumed
Experimental: For example, representative compounds were tested against ***, Mannheimia haemolytica and Pasteurella multocida, using the conventional broth-dilution assay.
The Minimum inhibitory concentrations (MIC) of compounds according to the invention for a number of veterinary bacterial pathogens were determined by the broth-microdilution method according to CLSI document VET01-A4.
Microdilution trays containing a doubling dilution series of the test compound were used for the tests. The MIC results were interpreted according to the CLSI documents VET01-S3. The lowest concentration of compound at which no visible growth (i.e. no turbidity) detected by the unaided eye was recorded as the MIC.

[6] = tested on: Mannheimia haemolytica MH 6374 (ATCC 33396, reference strain); assay: MIC, broth-microdilution (CLSI VET01-A4), strain MH 6374; details: Mannheimia haemolytica strain MH 6374, broth-microdilution; unit assumed
Summary of the method: as §1

[7] = tested on: Mannheimia haemolytica MH 13093 (XB0472-6014.1, BRD field isolate); assay: MIC, broth-microdilution (CLSI VET01-A4), strain MH 13093; details: Mannheimia haemolytica strain MH 13093, broth-microdilution; unit assumed
Summary of the method: as §1

[8] = tested on: Pasteurella multocida PM 6267 (P 2225 (L386), reference strain, mouse infection strain); assay: MIC, broth-microdilution (CLSI VET01-A4), strain PM 6267; details: Pasteurella multocida strain PM 6267, broth-microdilution; unit assumed
Summary of the method: as §1

[9] = tested on: Mannheimia haemolytica MH 6357 (M7/2, reference strain, cattle infection strain); assay: MIC, broth-microdilution (CLSI VET01-A4), strain MH 6357; details: Mannheimia haemolytica strain MH 6357, broth-microdilution; unit assumed
Summary of the method: as §1

[10] = tested on: Mannheimia haemolytica MH 12587 (1071, BRD field isolate, macrolide-resistance: erm+, E+); assay: MIC, broth-microdilution (CLSI VET01-A4), strain MH 12587; details: Mannheimia haemolytica strain MH 12587, broth-microdilution; unit assumed
Summary of the method: as §1

Row | Compound | MIC MH 10720 [1] | MIC PM 12080 [2] | MIC MH 13065 [3] | MIC PM 10775 [4] | MIC PM 6391 [5] | MIC MH 6374 [6] | MIC MH 13093 [7] | MIC PM 6267 [8] | MIC MH 6357 [9] | MIC MH 12587 [10]
1 | COCCNCc1ccc(C#Cc2ccc(C(=O)N[C@H](C(=O)NO)C(C)(C)S(C)(=O)=O)cc2)cc1 [Compound 257] | 0.4 µg/mL (≈ 0.797 µM) | ≤ 0.1 µg/mL | 1.6 µg/mL (≈ 3.19 µM) | ≤ 0.1 µg/mL | 0.2 µg/mL (≈ 0.399 µM) | 1.6 µg/mL (≈ 3.19 µM) | 1.6 µg/mL (≈ 3.19 µM) | ≤ 0.1 µg/mL | 3.1 µg/mL (≈ 6.18 µM) | 3.1 µg/mL (≈ 6.18 µM)
2 | CC(C)[C@H](NC(=O)c1ccc(C#Cc2ccc(CNCC3CCCO3)cc2)cc1)C(=O)NO (stereo partly shown) [Compound 200] | 0.8 µg/mL (≈ 1.78 µM) | 0.2 µg/mL (≈ 0.445 µM) | 1.6 µg/mL (≈ 3.56 µM) | ≤ 0.1 µg/mL | 0.2 µg/mL (≈ 0.445 µM) | 3.1 µg/mL (≈ 6.9 µM) | 3.1 µg/mL (≈ 6.9 µM) | ≤ 0.1 µg/mL | 6.3 µg/mL (≈ 14 µM) | 6.3 µg/mL (≈ 14 µM)
3 | O=C(N[C@@H](CO)C(=O)NO)c1ccc(C#Cc2ccc(CNC3CCCCC3)cc2)cc1 [Compound 149] | 3.1 µg/mL (≈ 7.12 µM) | 1.6 µg/mL (≈ 3.67 µM) | 25 µg/mL (≈ 57.4 µM) | ≤ 0.1 µg/mL | 1.6 µg/mL (≈ 3.67 µM) | 25 µg/mL (≈ 57.4 µM) | 25 µg/mL (≈ 57.4 µM) | 0.8 µg/mL (≈ 1.84 µM) | 12.5 µg/mL (≈ 28.7 µM) | 25 µg/mL (≈ 57.4 µM)
4 | CSC(C)(C)[C@H](NC(=O)c1ccc(C#Cc2ccc(CNCc3ccccn3)nc2)cc1)C(=O)NO [Compound 343] | 0.4 µg/mL (≈ 0.794 µM) | 1.6 µg/mL (≈ 3.18 µM) | 3.1 µg/mL (≈ 6.16 µM) | 0.4 µg/mL (≈ 0.794 µM) | 6.3 µg/mL (≈ 12.5 µM) | 3.1 µg/mL (≈ 6.16 µM) | 6.3 µg/mL (≈ 12.5 µM) | 3.1 µg/mL (≈ 6.16 µM) | 3.1 µg/mL (≈ 6.16 µM) | 6.3 µg/mL (≈ 12.5 µM)
5 | CCCNCc1ccc(C#Cc2ccc(C(=O)N[C@H](C(=O)NO)C(C)(C)S(C)(=O)=O)cc2)cc1 [Compound 265] | 0.8 µg/mL (≈ 1.65 µM) | 0.4 µg/mL (≈ 0.824 µM) | 3.1 µg/mL (≈ 6.38 µM) | ≤ 0.1 µg/mL | 0.8 µg/mL (≈ 1.65 µM) | 6.3 µg/mL (≈ 13 µM) | 3.1 µg/mL (≈ 6.38 µM) | ≤ 0.1 µg/mL | 6.3 µg/mL (≈ 13 µM) | 6.3 µg/mL (≈ 13 µM)
6 | COCCNCc1ccc(C#Cc2ccc(C(=O)N[C@H](C(=O)NO)C(C)(C)O)cc2)cc1 [Compound 221] | ≤ 0.1 µg/mL | 0.4 µg/mL (≈ 0.91 µM) | 1.6 µg/mL (≈ 3.64 µM) | ≤ 0.1 µg/mL | 0.4 µg/mL (≈ 0.91 µM) | 0.8 µg/mL (≈ 1.82 µM) | 1.6 µg/mL (≈ 3.64 µM) | ≤ 0.1 µg/mL | 0.8 µg/mL (≈ 1.82 µM) | 3.1 µg/mL (≈ 7.05 µM)
7 | CSC(C)(C)[C@H](NC(=O)c1ccc(C#Cc2ccc(CNCC#N)cc2)cc1)C(=O)NO [Compound 246] | ≤ 0.1 µg/mL | 0.2 µg/mL (≈ 0.444 µM) | 0.8 µg/mL (≈ 1.78 µM) | ≤ 0.1 µg/mL | 0.2 µg/mL (≈ 0.444 µM) | 0.8 µg/mL (≈ 1.78 µM) | 0.4 µg/mL (≈ 0.888 µM) | ≤ 0.1 µg/mL | 0.4 µg/mL (≈ 0.888 µM) | 0.8 µg/mL (≈ 1.78 µM)
8 | CC(C)(O)[C@H](NC(=O)c1ccc(C#Cc2ccc(CN3CCOCC3)nc2)cc1)C(=O)NO [Compound 326] | 0.8 µg/mL (≈ 1.77 µM) | 0.4 µg/mL (≈ 0.884 µM) | 3.1 µg/mL (≈ 6.85 µM) | ≤ 0.1 µg/mL | 0.4 µg/mL (≈ 0.884 µM) | 6.3 µg/mL (≈ 13.9 µM) | 6.3 µg/mL (≈ 13.9 µM) | 3.1 µg/mL (≈ 6.85 µM) | 3.1 µg/mL (≈ 6.85 µM) | 12.5 µg/mL (≈ 27.6 µM)
9 | Nc1ccc(C#Cc2ccc(C(=O)N[C@@H](CO)C(=O)NO)cc2)cc1 [Compound 376, 4-[2-(4-aminophenyl)ethynyl]-N-[(1S)-2-(hydroxyamino)-1-(hydroxymethyl)-2-oxo-ethyl]benzamide] | 0.8 µg/mL (≈ 2.36 µM) | 1.6 µg/mL (≈ 4.71 µM) | 3.1 µg/mL (≈ 9.14 µM) | ≤ 0.1 µg/mL | 1.6 µg/mL (≈ 4.71 µM) | 3.1 µg/mL (≈ 9.14 µM) | 6.3 µg/mL (≈ 18.6 µM) | 0.8 µg/mL (≈ 2.36 µM) | 1.6 µg/mL (≈ 4.71 µM) | 6.3 µg/mL (≈ 18.6 µM)
10 | O=C(N[C@@H](CO)C(=O)NO)c1ccc(C#Cc2ccc(CNC3CCCC3)cc2)cc1 [Compound 148] | 1.6 µg/mL (≈ 3.8 µM) | 1.6 µg/mL (≈ 3.8 µM) | 12.5 µg/mL (≈ 29.7 µM) | ≤ 0.1 µg/mL | 1.6 µg/mL (≈ 3.8 µM) | 25 µg/mL (≈ 59.3 µM) | 12.5 µg/mL (≈ 29.7 µM) | 0.8 µg/mL (≈ 1.9 µM) | 6.3 µg/mL (≈ 14.9 µM) | 25 µg/mL (≈ 59.3 µM)
11 | CC[C@H](C)[C@H](NC(=O)c1ccc(C#Cc2ccc(CNC)cc2)cc1)C(=O)NO [Compound 194] | – | 1.6 µg/mL (≈ 4.07 µM) | 6.3 µg/mL (≈ 16 µM) | ≤ 0.1 µg/mL | 1.6 µg/mL (≈ 4.07 µM) | 25 µg/mL (≈ 63.5 µM) | 12.5 µg/mL (≈ 31.8 µM) | 0.4 µg/mL (≈ 1.02 µM) | 6.3 µg/mL (≈ 16 µM) | 25 µg/mL (≈ 63.5 µM)
